Experimental findings from US8633204B2 (Pfizer Inc., priority 2006, dated 2014) are described below.

The target of test [1] is PI3-Kα (Mus musculus (Mouse), UniProt P42337). The experiment in a line: PI3-Kα Biochemical Assay (fluorescence polarization kinase assay). Put shortly: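 Co-expressed mouse p110/p85 PI3-Kα (4 nM stock) acting on PI(4,5)P2 (60 μM stock) with ATP/MgCl2 in HEPES pH 7.4 buffer, 35 min at room temperature, then EDTA stop. PI(3,4,5)P3 product detected by displacement of TAMRA-PIP3 from Grip1 PH domain (FP, 535/580 nm). IC50 from sigmoidal fit of % inhibition.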
A general note: In fluorescence polarisation assays a small probe gives low polarisation when free and higher when bound to something large.

Test [2] concerns PI3-K in BT20 cells (phosphorylation of AKT at serine 473). As to the kind of experiment: PI3-Kα Cellular Assay (AKT Ser473 phosphorylation ELISA in BT20 cells). The test is classed as cell-based, human. To be noted: Homo sapiens, BT-20, pAKT Ser473 ELISA, 1 hour incubation. In a few lines: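 Cells seeded overnight in 0.5% FBS, then exposed 1 h at 37 °C to an 11-concentration 1:3 dilution series, in duplicate.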

PI3-Kα, sequence (P42337 whole entry, the tested form may be a part): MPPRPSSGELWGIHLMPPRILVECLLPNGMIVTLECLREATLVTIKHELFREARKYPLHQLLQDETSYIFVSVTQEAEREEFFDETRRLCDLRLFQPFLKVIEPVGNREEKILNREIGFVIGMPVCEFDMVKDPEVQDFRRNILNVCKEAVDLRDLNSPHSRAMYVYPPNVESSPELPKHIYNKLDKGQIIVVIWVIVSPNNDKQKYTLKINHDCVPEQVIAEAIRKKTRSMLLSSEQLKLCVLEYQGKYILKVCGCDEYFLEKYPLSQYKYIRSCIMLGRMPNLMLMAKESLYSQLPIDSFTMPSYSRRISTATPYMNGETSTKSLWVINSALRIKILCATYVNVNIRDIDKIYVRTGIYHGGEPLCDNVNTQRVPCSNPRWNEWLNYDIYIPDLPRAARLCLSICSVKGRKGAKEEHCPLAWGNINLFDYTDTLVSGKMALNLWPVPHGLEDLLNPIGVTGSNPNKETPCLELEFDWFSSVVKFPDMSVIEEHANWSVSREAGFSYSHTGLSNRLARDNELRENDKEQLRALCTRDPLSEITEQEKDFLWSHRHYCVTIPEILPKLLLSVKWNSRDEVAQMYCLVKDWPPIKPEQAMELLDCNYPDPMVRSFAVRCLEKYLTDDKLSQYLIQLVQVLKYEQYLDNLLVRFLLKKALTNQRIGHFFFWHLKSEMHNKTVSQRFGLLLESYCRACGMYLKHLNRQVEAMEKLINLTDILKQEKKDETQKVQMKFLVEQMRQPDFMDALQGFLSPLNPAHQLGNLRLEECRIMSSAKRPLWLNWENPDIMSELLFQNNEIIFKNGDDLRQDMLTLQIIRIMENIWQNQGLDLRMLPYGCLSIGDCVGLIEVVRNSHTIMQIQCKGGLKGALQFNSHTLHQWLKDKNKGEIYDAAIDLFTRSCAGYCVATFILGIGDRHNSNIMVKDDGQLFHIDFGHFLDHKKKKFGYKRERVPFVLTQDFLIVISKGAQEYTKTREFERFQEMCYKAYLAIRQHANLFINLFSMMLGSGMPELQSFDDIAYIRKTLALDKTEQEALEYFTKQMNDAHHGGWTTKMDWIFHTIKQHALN
PI3-Kα, sequence (P26450 whole entry partner, the tested form may be a part): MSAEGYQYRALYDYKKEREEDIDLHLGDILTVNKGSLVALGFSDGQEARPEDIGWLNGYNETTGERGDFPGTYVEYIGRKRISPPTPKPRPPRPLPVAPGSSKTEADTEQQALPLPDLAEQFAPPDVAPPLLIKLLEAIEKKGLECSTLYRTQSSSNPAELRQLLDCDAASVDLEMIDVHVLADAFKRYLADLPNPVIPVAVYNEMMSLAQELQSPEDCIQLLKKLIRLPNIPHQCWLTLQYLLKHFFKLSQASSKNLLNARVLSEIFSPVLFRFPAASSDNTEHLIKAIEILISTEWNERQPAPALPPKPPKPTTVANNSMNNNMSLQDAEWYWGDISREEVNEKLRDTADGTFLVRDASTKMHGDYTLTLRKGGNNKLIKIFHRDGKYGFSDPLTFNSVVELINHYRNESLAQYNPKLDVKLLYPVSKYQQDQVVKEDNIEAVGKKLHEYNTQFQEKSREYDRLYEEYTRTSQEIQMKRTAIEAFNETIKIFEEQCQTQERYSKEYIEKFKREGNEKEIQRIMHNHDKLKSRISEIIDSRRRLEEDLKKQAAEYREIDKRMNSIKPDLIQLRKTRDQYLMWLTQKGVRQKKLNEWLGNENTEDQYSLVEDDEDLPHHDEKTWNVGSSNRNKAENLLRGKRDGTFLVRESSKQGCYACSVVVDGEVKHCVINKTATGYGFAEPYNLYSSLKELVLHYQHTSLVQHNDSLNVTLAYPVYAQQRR

In the case of `COc1ncc(-c2cc3c(C)nc(N)nc3n([C@H]3C[C@H](OCCO)C3)c2=O)cn1` [Compound 316, 2-amino-8-[trans-3-(2-hydroxyethoxy)cyclobutyl]-6-(2-methoxypyrimidin-5-yl)-4-methylpyrido[2,3-d]pyrimidin-7(8H)-one], the 50% inhibitory concentration (IC50) – broadly, the concentration needed to halve the response being measured – in test [1] turned out to be 6.65 nM; in test [2], 93.5 nM.

As for `COc1ccc(-c2cc3c(C)nc(N)nc3n([C@H]3C[C@H](OCC(N)=O)C3)c2=O)cn1` [Compound 317, 2-({trans-3-[2-amino-6-(6-methoxypyridin-3-yl)-4-methyl-7-oxopyrido[2,3-d]pyrimidin-8(7H)-yl]cyclobutyl}oxy)acetamide], the 50% inhibitory concentration (IC50) in test [1] was 4.72 nM; in test [2], 33.5 nM.

As for `COc1ncc(-c2cc3c(C)nc(N)nc3n([C@H]3C[C@H](OCC(N)=O)C3)c2=O)cc1F` [Compound 318, 2-({trans-3-(2-amino-6-(5-fluoro-6-methoxypyridin-3-yl)-4-methyl-7-oxopyrido[2,3-yl]pyrimidin-8(7H)-yl)cyclobutyl}oxy)acetamide], the IC50 in test [1] was determined as 2.14 nM; in test [2] it was 12.6 nM.

As to `COc1ncc(-c2cc3c(C)nc(N)nc3n([C@H]3C[C@H](OCC(N)=O)C3)c2=O)cn1` [Compound 319, 2-({trans-3-(2-amino-6-(2-methoxypyrimidin-5-yl)-4-methyl-7-oxopyrido[2,3-d]pyrimidin-8(7H)-yl]cydobutyl}oxy)acetamide], the IC50 in test [1] was 5.91 nM; in test [2], 110 nM.
